Data taken from article PMC12227661, “Shedding Light on the Phytochemical and Biological Fingerprints of Fibigia clypeata (L.) Medik Essential Oil as a Pharmacotherapeutic Agent” (Food Science & Nutrition, 2025).
In brackets after ≈: the same amount, converted by molar mass.

Experiments:
[1] = system: various bacterial strains; design: method as in Kyung and Fleming [1997]; conditions: ref Kyung and Fleming [1997]; cited from earlier work
[2] = system: four yeast strains; design: method as in Kyung and Fleming [1997]; conditions: ref Kyung and Fleming [1997]; cited from earlier work
[3] = DPPH free radical scavenging activity assay
Method: The DPPH radical scavenging activity assay has been performed according to the method of Blois et al. with minor modifications (Blois [1958]). Butylated Hydroxy Toluene (BHT), Butylated Hydroxy Anisole (BHA), and α‐TOC (Tocopherol) were also assayed as standards for comparison.

[4] = CUPRAC cupric ion‐reducing antioxidant capacity; conditions: absorbance 450 nm after 30 min
Method: The antioxidant capacity assay to identify the reductive efficiencies of the essential oil for Cu metal was performed according to the method reported in the literature (Apak et al. [2005]). The absorbances were measured at 450 nm after 30 min. BHA, BHT, and α‐TOC were used as standards.

[5] = ABTS cation radical decolorization activity; conditions: footnote a: given as IC50
Source text: The procedure was followed from the literature (Miller et al. [1993]) and the measurements at 734 nm were read for each concentration relative to a blank absorbance (DMSO). BHA, BHT, and ‐TOC were used as standards. The obtained values were compared to the standards.

[6] = molecular target: T1, Acetylcholinesterase (AChE) (Electrophorus electricus, UniProt O42275); design: method as in Ryan and Bryan [1988]; conditions: ref Ryan and Bryan [1988]; cited from earlier work
T1 construct: purchased Sigma C3389
T1 sequence (O42275 24-633): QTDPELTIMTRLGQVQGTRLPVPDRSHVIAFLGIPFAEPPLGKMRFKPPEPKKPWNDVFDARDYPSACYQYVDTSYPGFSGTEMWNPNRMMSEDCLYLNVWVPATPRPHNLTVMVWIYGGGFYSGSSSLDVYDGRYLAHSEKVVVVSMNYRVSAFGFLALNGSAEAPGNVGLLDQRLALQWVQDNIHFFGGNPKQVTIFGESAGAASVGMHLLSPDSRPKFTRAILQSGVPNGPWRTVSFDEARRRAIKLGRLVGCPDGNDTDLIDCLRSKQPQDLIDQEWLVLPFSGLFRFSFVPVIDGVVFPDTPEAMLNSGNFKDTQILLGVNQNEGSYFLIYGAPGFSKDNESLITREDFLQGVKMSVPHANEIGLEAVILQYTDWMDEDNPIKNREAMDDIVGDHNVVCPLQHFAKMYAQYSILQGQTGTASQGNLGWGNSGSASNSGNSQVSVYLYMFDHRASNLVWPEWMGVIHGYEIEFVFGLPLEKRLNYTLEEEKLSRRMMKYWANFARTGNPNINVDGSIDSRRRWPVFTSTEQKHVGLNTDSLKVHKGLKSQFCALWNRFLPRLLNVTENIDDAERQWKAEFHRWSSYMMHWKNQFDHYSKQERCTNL

Row | Compound | MIC [1] [ppm] | MIC [2] [ppm] | IC50 values DPPH free radical [3] [µg/mL] | A 0.5 values CUPRAC [4] [µg/mL] | A 0.5 values ABTS cation radical [5] [µg/mL] | AChE inhibition [6]
1 | CSSSC [Compound 2, Dimethyl trisulfide] | 200 | 20 |  |  |  | 
2 | Cc1cc(C(C)(C)C)c(O)c(C(C)(C)C)c1 [BHT, Butylated Hydroxy Toluene] |  |  | 16.71 ± 0.80 (≈ 75.8 µM) | 3.93 ± 0.24 | 4.44 ± 0.30 | 
3 | COc1ccc(O)c(C(C)(C)C)c1 [BHA, Butylated Hydroxy Anisole] |  |  | 3.22 ± 0.08 (≈ 17.9 µM) | 4.14 ± 0.17 | 2.74 ± 0.03 | 
4 | Cc1c(C)c2c(c(C)c1O)CC[C@@](C)(CCC[C@H](C)CCC[C@H](C)CCCC(C)C)O2 [α‐TOC, Tocopherol] |  |  | 1.41 ± 0.04 (≈ 3.27 µM) | 13.64 ± 0.32 | 8.48 ± 0.43 | 
5 | C=CC(C)(O)CCC=C(C)C (stereo not drawn) [Compound 6, Linalool] |  |  |  |  |  | no significant inhibition
